Assay results: ChEMBL document CHEMBL6071129, “Strategies that regulate Hippo signaling pathway for novel anticancer therapeutics” (Eur J Med Chem, 2024)
Values belong to the compound of their own block, whether it stands above or below them.

Key:
[1] = system: C6; assay: Antiproliferative activity against rat C6 cells incubated for 48 hrs by CCK8 assay; type: functional, cell-based; details: C6, 48 h
[2] = system: U-251; assay: Antiproliferative activity against human U251 cells incubated for 48 hrs by CCK8 assay; type: functional, cell-based; details: U-251, 48 h
[3] = Antiproliferative activity against […] cells incubated for 48 hrs by CCK8 assay; type: functional, cell-based; details: U373 MG
[4] = system: LN-229; assay: Antiproliferative activity against LN-229 cells incubated for 48 hrs by CCK8 assay; type: functional, cell-based; details: Homo sapiens, LN-229, 48 h
[5] = system: U-251; assay: Antiproliferative activity against human U-251 cells incubated for 48 hrs by CCK8 assay; type: functional, cell-based; details: U-251, 48 h
[6] = Antiproliferative activity against mouse GL261 cells incubated for 48 hrs by CCK8 assay; type: functional, cell-based; details: GL261, 48 h
[7] = system: U-87 MG; assay: Antiproliferative activity against human U87 cells incubated for 48 hrs by CCK8 assay; type: functional, cell-based, U-87MG ATCC
[8] = system: GBM; assay: Antiproliferative activity against human GBM cells incubated for 48 hrs by CCK8 assay; type: functional, cell-based
[9] = system: 4T1; assay: Antiproliferative activity against mouse 4T1 cells incubated for 72 hrs by SRB method; type: functional, cell-based; details: 4T1, 72 h
[10] = system: MDA-MB-231; assay: Antiproliferative activity against human MDA-MB-231 cells incubated for 72 hrs by SRB method; type: functional, cell-based; details: MDA-MB-231, 72 h
[11] = system: MCF7; assay: Antiproliferative activity against human MCF7 cells incubated for 48 hrs by CCK8 assay; type: functional, cell-based; details: MCF7, 48 h
[12] = Inhibition of His-tagged TEAD1 (unknown origin) to TAZ (unknown origin) protein-protein interaction preincubated for 30 mins followed by biotinylated YAP addition and measured after 60 mins by TR-FRET assay; design: species or system Homo sapiens
[13] = Inhibition of His-tagged TEAD4 (unknown origin) to TAZ (unknown origin) protein-protein interaction preincubated for 30 mins followed by biotinylated YAP addition and measured after 60 mins by TR-FRET assay; design: species or system Homo sapiens
[14] = Inhibition of His-tagged TEAD1 (unknown origin) to YAP (unknown origin) protein-protein interaction preincubated for 30 mins followed by biotinylated YAP addition and measured after 60 mins by TR-FRET assay; design: species or system Homo sapiens
[15] = system: Transcriptional enhancer factor TEF-1-Lipid; assay: Inhibition of His-tagged TEAD1 (unknown origin) to lipid (unknown origin) interaction preincubated for 30 mins followed by biotinylated lipid addition and measured after 60 mins by TR-FRET assay; design: species or system Homo sapiens
[16] = system: Transcriptional enhancer factor TEF-5-Lipid; assay: Inhibition of His-tagged TEAD3 (unknown origin) to lipid (unknown origin) interaction preincubated for 30 mins followed by biotinylated lipid addition and measured after 60 mins by TR-FRET assay; design: species or system Homo sapiens
[17] = system: Transcriptional enhancer factor TEF-3-Lipid; assay: Inhibition of His-tagged TEAD4 (unknown origin) to lipid (unknown origin) interaction preincubated for 30 mins followed by biotinylated lipid addition and measured after 60 mins by TR-FRET assay; design: species or system Homo sapiens
[18] = Inhibition of His-tagged TEAD3 (unknown origin) to TAZ (unknown origin) protein-protein interaction preincubated for 30 mins followed by biotinylated YAP addition and measured after 60 mins by TR-FRET assay; design: species or system Homo sapiens
[19] = Inhibition of His-tagged TEAD2 (unknown origin) to TAZ (unknown origin) protein-protein interaction preincubated for 30 mins followed by biotinylated YAP addition and measured after 60 mins by TR-FRET assay; design: species or system Homo sapiens
[20] = system: Transcriptional enhancer factor TEF-4-Lipid; assay: Inhibition of His-tagged TEAD2 (unknown origin) to lipid (unknown origin) interaction preincubated for 30 mins followed by biotinylated lipid addition and measured after 60 mins by TR-FRET assay; design: species or system Homo sapiens
[21] = Inhibition of His-tagged TEAD3 (unknown origin) to YAP (unknown origin) protein-protein interaction preincubated for 30 mins followed by biotinylated YAP addition and measured after 60 mins by TR-FRET assay; design: species or system Homo sapiens
[22] = Inhibition of His-tagged TEAD4 (unknown origin) to YAP (unknown origin) protein-protein interaction preincubated for 30 mins followed by biotinylated YAP addition and measured after 60 mins by TR-FRET assay; design: species or system Homo sapiens
[23] = Inhibition of His-tagged TEAD2 (unknown origin) to YAP (unknown origin) protein-protein interaction preincubated for 30 mins followed by biotinylated YAP addition and measured after 60 mins by TR-FRET assay; design: species or system Homo sapiens
[24] = system: MDA-MB-231; assay: Antiproliferative activity against human MDA-MB-231 cells incubated for 96 hrs by MTT assay; type: functional, cell-based; details: MDA-MB-231, 96 h
[25] = Antiproliferative activity against human HBC5 cells incubated for 96 hrs by MTT assay; type: functional, cell-based; details: HBC5, 96 h
[26] = system: MDA-MB-453; assay: Antiproliferative activity against human MDA-MB-453 cells incubated for 96 hrs by MTT assay; type: functional, cell-based; details: MDA-MB-453, 96 h
[27] = Inhibition of cell invasion in human colorectal cancer cells; type: functional
[28] = system: C8161; assay: Antiproliferative activity against human C8161 cells incubated for 72 hrs by alamar blue staining based assay; type: functional, cell-based; details: C8161, 72 h
[29] = system: A-375; assay: Antiproliferative activity against human A-375 cells incubated for 72 hrs by alamar blue staining based assay; type: functional, cell-based; details: A-375, 72 h
[30] = Inhibition of TEAD (unknown origin) to YAP (unknown origin) protein-protein interaction expressed in HEK293T cells transfected with 8XGTIIC-Luciferase and CMV-betagalactosidase incubated for 24 hrs by luciferase reporter assay; type: cell-based, Homo sapiens
[31] = Inhibition of TEAD (unknown origin) by YAP reporter assay; design: species or system Homo sapiens
[32] = system: NCI-H2052; assay: Antiproliferative activity against human NCI-H2052 cells; type: functional, cell-based

SMILES: O=c1ccc2ccc3occc3c2o1 [ANGELICIN]
- IC50 [1]: 200 µM
- IC50 [2]: 200 µM

SMILES: O=c1cc(-c2ccc(O)c(O)c2)oc2cc(O)cc(O)c12 [LUTEOLIN]
- IC50 [9]: 6.98 µM
- IC50 [10]: 19.2 µM

SMILES: CCC(C)(C)C(=O)O[C@H]1C[C@@H](C)C=C2C=C[C@H](C)[C@H](CC[C@@H]3C[C@@H](O)CC(=O)O3)[C@H]21 [SIMVASTATIN]
- IC50 [11]: > 10 µM

SMILES: N#Cc1ccc2[nH]cc(CCCCN3CCN(c4ccc5oc(C(N)=O)cc5c4)CC3)c2c1 [VILAZODONE]
- inhibition (INH) [27]: 36%

SMILES: CC(C)[C@]12O[C@H]1[C@@H]1O[C@@]13[C@@]1(C)CCC4=C(COC4=O)[C@@H]1C[C@@H]1O[C@@]13C2=O [TRIPTONIDE]
- IC50 [28]: 0.00556 µM
- IC50 [29]: 0.0162 µM

Further lines, with some results ahead:

- IC50 [5]: 24 µM
- IC50 [7]: 13.3 µM
SMILES: CN(C)CCCN1c2ccccc2CCc2ccccc21 [IMIPRAMINE]
- IC50 [3]: 346 µM
- IC50 [4]: 153 µM
- IC50 [6]: 43.8 µM
- IC50 [8]: 22.1 µM

- IC50 [12]: 1.3 µM
- IC50 [13]: 20 µM
- IC50 [14]: > 5 µM
- IC50 [15]: 1.1 µM
- IC50 [16]: 0.7 µM
- IC50 [17]: > 50 µM
- IC50 [18]: 1.3 µM
- IC50 [19]: 2 µM
- IC50 [20]: 1.6 µM
- IC50 [21]: 1.4 µM
- IC50 [22]: > 50 µM
- IC50 [23]: 3 µM
SMILES: CCOC(=O)c1cnn2c(=O)cc(-c3ccc(C(F)(F)F)cc3)[nH]c12

- IC50 [24]: ≤ 10 µM
- IC50 [26]: ≤ 10 µM
SMILES: Cc1ccc(Nc2nccc(N(C)c3ccc4c(C)n(C)nc4c3)n2)cc1S(N)(=O)=O [PAZOPANIB]
- IC50 [25]: ≤ 10 µM

- IC50 [30]: 6.5 µM
SMILES: Nc1nonc1-n1nnc(C(=O)N/N=C2\C(=O)Nc3ccccc32)c1-c1ccc(Cl)c(Cl)c1

- IC50 [30]: 1.7 µM
SMILES: COc1ccc2c(c1)/C(=N/NC(=O)c1nnn(-c3ccccc3N)c1-c1ccc(Cl)c(Cl)c1)C(=O)N2

- IC50 [31]: 0.458 µM
- IC50 [32]: > 3 µM
SMILES: COC(=O)c1cc(S(N)(=O)=O)ccc1NC1CCCCC1
